Test results as given in patent US4994473A, “Pyridyl containing insecticides” (ICI Americas Inc., priority 1988, dated 1991).

Assays:
Musca domestica = experiment: Housefly contact test, mortality after 48 hours; type: in vivo, Housefly Musca domestica; settings: μg of the test compound per 25 female flies
Method: (§1) The compounds in Table I above were tested for insecticidal activity using the following testing procedures. LC50 values, based on the results of these tests and calculated according to dosage-mortality curves, are expressed in Table II.
The test compound was diluted in acetone and aliquots pipetted onto the bottom of aluminum dishes. To ensure even spreading of the chemical on the bottom of the dishes, 1 ml of acetone containing 0.01% peanut oil was also added to each dish. After all solvents had evaporated, the dishes were placed in circular cardboard cages containing 25 female houseflies, 1-2 days old. The cages were covered on the bottom with cellophane and on the top with tulle netting, and each contained a sugar-water saturated cotton plug for maintenance of the flies. Mortality was recorded after 48 hours. Test levels ranged from 100 μg/25 female houseflies downward. The LC-50 value is expressed below in Table II under the heading "HF", in terms of μg of the test compound per 25 female flies.

Aphis fabae = experiment: Black bean aphid spray test on nasturtium plants, mortality after 48 hours; type: in vivo, Black Bean Aphid Aphis fabae (Scop.); settings: mixed ages, percent of test compound in sprayed solution
Method: as §1
Black Bean Aphid Aphis fabae (Scop.)
Nasturtium plants (Tropaeolum sp.) approximately 5 cm tall, were transplanted into sandy loam soil in small cups and infested with 25-50 black bean aphids of mixed ages. Twenty-four hours later they were sprayed to the point of runoff with 50--50 acetone-water solutions of the test compound. Treated plants were held in the greenhouse and mortality was recorded after 48 hours. Test concentrations ranged from 0.05% downward. The LC-50 value is expressed below in Table II under the heading "BA" in terms of percent of the test compound in the sprayed solution.

Tetranychus urticae = experiment: Two-spotted mite acaricidal test on pinto bean plants; type: in vivo, two-spotted mite Tetranychus urticae (Koch); settings: percent concentration in solution, 5-7 days; for LC50 2-SM A: adults; for LC50 2-SM E: eggs
Source text: Acaricidal Evaluation Test
The two-spotted mite (2SM) [Tetranychus urticae (Koch)]was employed in tests for miticides. The test procedure was as follows:
Pinto bean plants (Phaseolus sp.) approximately 10 cm tall, were transplanted into sandy loam soil in small cups and thoroughly infested with two-spotted mites of mixed ages and sexes. Twenty-four hours later the infested plants were inverted and dipped for 2-3 seconds in 50--50 acetone-water solutions of the test compound. Treated plants were held in the greenhouse, and 5-7 days later mortality was determined for both adult mites and the nymphs hatching from eggs which were on the plants at the time of treatment. Test concentrations ranged from 0.05% downward. The LC-50 value is expressed below in Table II under the headings "2SM-A" (i.e., adults) and "2SM-E" (i.e. eggs) in terms of percent concentration of the test compound in the solution.

Heliothis virescens = experiment: Tobacco budworm egg dip test; type: in vivo, Tobacco Budworm Heliothis virescens (Fabricius); settings: 2-day old eggs (TBW-E), percent of test compound in solution
Method: as §1
Tobacco Budworm Heliothis virescens (Fabricius)
Eggs: Paper towel patches of 2-day old eggs of the tobacco budworm were dipped in acetone solutions of the test compound and placed in petri dishes containing a portion of larval rearing medium. Treated eggs were maintained at 78° F. and mortality was recorded after all control eggs had hatched and the young larvae were feeding on the media. Test concentrations ranged from 0.1% downward. The LC-50 value is expressed below in Table II under the heading "TBW-E" in terms of percent of the test compound in the solution.

Trichoplusia ni = experiment: Cabbage looper larvae leaf-dip test; type: in vivo, Cabbage Looper Trichoplusia ni (Hubner); settings: second instar larvae, percent of test compound in solution, 3-5 days
Method: as §1
Cabbage Looper Trichoplusia ni (Hubner)
The test compound was diluted in a 50--50 acetone-water solution Cotyledons of hyzini squash (Calabacita abobrinha), approximately 1×1.5 inches, were immersed in the test solutions for 2-3 seconds and placed on a wire screen to dry. The dried leaves were p1aced in petri dishes containing a moistened piece of filter paper and infested with 5 secondinstar cabbage looper larvae. The dishes were placed in a high humidity chamber. Mortality of the larvae was recorded 3-5 days later. Test concentrations ranged from 0.1% downward. The LC-50 value is expressed below in Table II under the heading "CL" in terms of percent of the test compound in solution.

[1] = tested on: Diabrotica undecimpunctata undecimpunctata; experiment: Western spotted cucumber beetle larvae soil test; type: in vivo; settings: Diabrotica eggs/larvae; ppm of the test compound in the soil
Method: as §1
Western Spotted Cucumber Beetle Larvae Diabrotica undecimpunctata undecimpunctata (Mannherheim)
Ten grams of moist potting soil was placed in a plastic cup. The test compound was dissolved in acetone. A 0.05 ml aliquot of the test sample, diluted to the desired concentration, was added to the soil. The cup was capped and the soil was mixed on a vortex mixer for approximately 15 seconds. An indentation was made on the surface of the soil and approximately 50 Diabrotica eggs were added. The eggs were covered with soil and maintained at room temperature (approximately 70° F. or 21° C.). Four days later a section of Romaine lettuce (Latuca sativa) leaf was placed in the treated cups. One week later the cups were examined for live larvae. Test concentrations ranged from 25 ppm downward. The LC-50 value is expressed below in Table II under the heading "Diabrotica" in terms of ppm of the test compound in the soil.

SMILES	LC50 HF (Musca domestica) [µg]	LC50 BA (Aphis fabae) [%]	LC50 2-SM A (Tetranychus urticae) [%]	LC50 2-SM E (Tetranychus urticae) [%]	LC50 TBW (Heliothis virescens) [%]	LC50 CL (Trichoplusia ni) [%]	LC50 Diabrotica [1] [ppm]
Cc1ccc(N=C(OCc2cccc(Oc3ccccc3)c2)C(C)C)cn1 [Compound 10]	25	0.05	> 0.05	> 0.05	> 0.1	> 0.1	–
CC(C)C(=Nc1ccc(Br)nc1)OCc1cccc(Oc2ccccc2)c1 [Compound 11]	7	0.01	> 0.05	> 0.05	> 0.1	0.01	–
CC(C)(Cl)C(=Nc1ccc(Br)nc1)OCc1cccc(Oc2ccccc2)c1 [Compound 12]	12	0.05	> 0.05	> 0.05	> 0.1	0.02	–
CC(C)C(=Nc1cncc(Br)c1)OCc1cccc(Oc2ccccc2)c1 [Compound 13]	7	> 0.05	–	–	> 0.1	0.015	–
CC(C)C(=Nc1ccc2ncccc2c1)OCc1cccc(Oc2ccccc2)c1 [Compound 16]	59	–	> 0.05	> 0.05	> 0.1	0.025	> 25
CC(C)C(=Nc1cnc2ccccc2c1)OCc1cccc(Oc2ccccc2)c1 [Compound 17]	36	–	> 0.05	> 0.05	> 0.1	0.05	> 25
CC(C)C(=Nc1ccc2ncoc2c1)OCc1cccc(Oc2ccccc2)c1 [Compound 18]	8	–	> 0.05	> 0.05	> 0.1	0.009	> 25
CC(C)C(=Nc1ccc2ocnc2c1)OCc1cccc(Oc2ccccc2)c1 [Compound 19]	10	–	> 0.05	> 0.05	> 0.1	0.04	> 25
CC(C)C(=Nc1ccc2ncsc2c1)OCc1cccc(Oc2ccccc2)c1 [Compound 20]	6	–	–	–	–	0.009	–
CC(C)C(=Nc1ccc2nc(C(C)C)sc2c1)OCc1cccc(Oc2ccccc2)c1 [Compound 21]	> 100	–	> 0.05	> 0.05	> 0.1	0.05	> 25
CC(C)C(=Nc1ccc(Cl)nc1)OCc1cccc(Oc2ccc(F)cc2)c1 [Compound 22]	9	–	> 0.05	> 0.05	0.05	0.001	> 25
CC(C)C(=Nc1ccc(Cl)nc1)NCc1cccc(Oc2ccccc2)c1 [Compound 23]	> 100	–	> 0.05	> 0.05	> 0.1	0.1	> 25
Cc1nc2cc(N=C(OCc3cccc(Oc4ccccc4)c3)C(C)C)ccc2o1 [Compound 24]	> 100	–	> 0.05	> 0.05	> 0.1	0.0075	> 25
Cc1nc2ccc(N=C(OCc3cccc(Oc4ccccc4)c3)C(C)C)cc2o1 [Compound 25]	38	–	> 0.05	> 0.05	> 0.1	0.0075	> 25
CC(C)C(=Nc1ccc(Cl)nc1)OCc1ccc(F)c(Oc2ccc(F)cc2)c1 [Compound 31]	7.5	–	> 0.05	> 0.05	0.45	0.0016	> 25
CC(C)C(=Nc1ccc(Cl)nc1)OCc1ccc(F)c(Oc2ccc(Cl)cc2)c1 [Compound 32]	22	–	> 0.05	0.05	0.03	0.00075	> 25
CC(C)C(=Nc1cc(C(F)(F)F)ccn1)OCc1cccc(Oc2ccccc2)c1 [Compound 34]	> 100	–	> 0.05	> 0.05	> 0.1	0.018	> 25
CC(C)C(=Nc1cncc(C(F)(F)F)c1)OCc1cccc(Oc2ccc(F)cc2)c1 [Compound 35]	23	–	> 0.05	> 0.05	0.1	0.001	> 25
CC(C)C(=Nc1cc(C(F)(F)F)ccn1)OCc1cccc(Oc2ccc(F)cc2)c1 [Compound 36]	> 100	–	> 0.05	> 0.05	> 0.1	0.015	> 25
